Experimental data taken from ChEMBL document CHEMBL5512604, “Small molecules targeting selected histone methyltransferases (HMTs) for cancer treatment: Current progress and novel strategies” (Eur J Med Chem, 2024).

Key:
[1] = target: von Hippel-Lindau disease tumor suppressor/Histone-lysine N-methyltransferase EZH2 (Homo sapiens, UniProt Q15910+P40337); assay: PROTAC activity at VHL/EZH2 in human MDA-MB-453 cells assessed as protein degradation incubated for 48 hrs by Western blot analysis; format: cell-based
[2] = target: Histone-lysine N-methyltransferase EZH2 (Homo sapiens, UniProt Q15910); assay: Displacement of [3H-SAM] from full-length EZH2 (2 to 746 residues) (unknown origin) using a core histone substrate
[3] = target: T1, Histone-lysine N-methyltransferase EZH1 (Homo sapiens, UniProt Q92800); assay: Displacement of [3H-SAM] from full-length EZH1 (2 to 746 residues) (unknown origin) using a core histone substrate
T1 sequence (Q92800 whole entry): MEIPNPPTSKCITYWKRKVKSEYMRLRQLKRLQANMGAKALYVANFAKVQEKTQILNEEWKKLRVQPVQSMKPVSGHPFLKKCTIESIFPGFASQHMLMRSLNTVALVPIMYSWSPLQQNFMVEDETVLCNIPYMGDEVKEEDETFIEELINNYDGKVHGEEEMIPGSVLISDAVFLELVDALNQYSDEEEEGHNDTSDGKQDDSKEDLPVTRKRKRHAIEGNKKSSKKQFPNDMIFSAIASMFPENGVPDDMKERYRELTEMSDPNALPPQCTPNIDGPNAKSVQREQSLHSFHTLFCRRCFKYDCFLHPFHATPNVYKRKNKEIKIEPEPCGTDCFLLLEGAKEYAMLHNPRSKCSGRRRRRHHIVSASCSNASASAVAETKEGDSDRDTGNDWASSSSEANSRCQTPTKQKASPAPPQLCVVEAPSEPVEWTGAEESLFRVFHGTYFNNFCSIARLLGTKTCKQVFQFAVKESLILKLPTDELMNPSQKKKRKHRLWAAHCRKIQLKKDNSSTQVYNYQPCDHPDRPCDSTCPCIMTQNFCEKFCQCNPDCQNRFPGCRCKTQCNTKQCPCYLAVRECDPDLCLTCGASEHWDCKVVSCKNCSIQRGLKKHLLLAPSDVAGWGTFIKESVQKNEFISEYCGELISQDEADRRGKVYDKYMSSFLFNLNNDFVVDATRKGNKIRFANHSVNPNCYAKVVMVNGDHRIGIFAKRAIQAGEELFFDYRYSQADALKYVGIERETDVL

MDA-MB-453 = assay: Antiproliferative activity against human MDA-MB-453 cells assessed as inhibition of cell viability incubated for 5 days by CCK8 assay; format: functional, cell-based; conditions: MDA-MB-453, 120 h
[4] = target: Protein arginine N-methyltransferase 5 (Homo sapiens, UniProt O14744); assay: Inhibition of PRMT5 (unknown origin) by HotSpot profiling analysis
SU-DHL-6 [5] = assay: Antiproliferative activity against human SU-DHL-6 cells; format: functional, cell-based
SU-DHL-6 [6] = assay: Potency index, ratio of EPZ6438 IC50 to test compound IC50 for antiproliferative activity against human SU-DHL-6 cells; format: functional
A549 = assay: Antiproliferative activity against human A549 cells assessed as inhibition of cell growth incubated for 72 hrs; format: functional, cell-based; conditions: A549, 72 h
in vitro = conditions: human, HEK293 cells
MCF7 = assay: Antiproliferative activity against human MCF7 cells assessed as inhibition of cell growth incubated for 72 hrs; format: functional, cell-based; conditions: MCF7, 72 h
[7] = target: T2, Histone-lysine N-methyltransferase EHMT2 (Homo sapiens, UniProt Q96KQ7); assay: Inhibition of G9a in human MDA-MB-231 cells assessed as decrease in H3K9Me2 level by ICW assay; format: cell-based
T2 sequence (Q96KQ7 whole entry): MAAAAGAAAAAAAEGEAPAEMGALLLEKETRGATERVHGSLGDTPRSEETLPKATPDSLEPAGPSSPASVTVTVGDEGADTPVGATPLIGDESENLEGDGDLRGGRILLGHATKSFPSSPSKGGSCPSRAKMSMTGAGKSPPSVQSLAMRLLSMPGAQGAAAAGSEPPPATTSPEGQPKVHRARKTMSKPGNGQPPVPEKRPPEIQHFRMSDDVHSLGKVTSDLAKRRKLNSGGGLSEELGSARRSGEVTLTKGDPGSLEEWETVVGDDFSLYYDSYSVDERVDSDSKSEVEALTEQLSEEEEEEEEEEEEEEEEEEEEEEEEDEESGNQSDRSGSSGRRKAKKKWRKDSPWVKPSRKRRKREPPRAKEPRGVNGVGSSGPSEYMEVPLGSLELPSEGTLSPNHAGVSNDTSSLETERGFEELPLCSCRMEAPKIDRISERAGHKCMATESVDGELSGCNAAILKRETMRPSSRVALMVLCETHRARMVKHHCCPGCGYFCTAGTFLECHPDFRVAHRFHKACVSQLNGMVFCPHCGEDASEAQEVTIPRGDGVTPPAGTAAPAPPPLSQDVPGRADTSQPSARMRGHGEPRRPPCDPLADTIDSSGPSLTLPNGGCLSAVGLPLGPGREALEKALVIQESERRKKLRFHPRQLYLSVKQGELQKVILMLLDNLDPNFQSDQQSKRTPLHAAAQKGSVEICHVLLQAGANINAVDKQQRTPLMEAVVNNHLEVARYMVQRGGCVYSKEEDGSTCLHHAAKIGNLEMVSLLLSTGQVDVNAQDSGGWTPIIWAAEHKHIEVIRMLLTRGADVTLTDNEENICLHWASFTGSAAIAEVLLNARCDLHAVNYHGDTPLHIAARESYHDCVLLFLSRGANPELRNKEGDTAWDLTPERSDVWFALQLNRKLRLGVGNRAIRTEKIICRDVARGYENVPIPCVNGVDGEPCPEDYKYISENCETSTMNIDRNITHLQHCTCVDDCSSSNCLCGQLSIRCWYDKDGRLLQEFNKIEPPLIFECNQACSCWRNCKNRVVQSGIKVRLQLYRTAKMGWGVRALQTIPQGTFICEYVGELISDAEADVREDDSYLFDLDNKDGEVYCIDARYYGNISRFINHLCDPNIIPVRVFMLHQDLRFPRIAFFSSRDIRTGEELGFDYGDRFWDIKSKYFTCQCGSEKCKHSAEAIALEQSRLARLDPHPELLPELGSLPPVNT

Histone deacetylase [8] = assay: Inhibition of HDAC in human K562 cells using Boc-K(Ac)-AMC as substrate; format: cell-based
MDA-MB-231 = assay: Antiproliferative activity against human MDA-MB-231 cells assessed as inhibition of cell growth incubated for 72 hrs; format: functional, cell-based; conditions: MDA-MB-231, 72 h
Histone deacetylase [9] = assay: Inhibition of HDAC in human HeLa cells using Boc-K(Ac)-AMC as substrate; format: cell-based
[10] = target: Bromodomain-containing protein 4 (Homo sapiens, UniProt O60885); assay: Induction of BRD4 degradation in human 231MFP cells; format: cell-based

Sequence of Histone-lysine N-methyltransferase EZH2 (Q15910 whole entry, the tested form may be a part): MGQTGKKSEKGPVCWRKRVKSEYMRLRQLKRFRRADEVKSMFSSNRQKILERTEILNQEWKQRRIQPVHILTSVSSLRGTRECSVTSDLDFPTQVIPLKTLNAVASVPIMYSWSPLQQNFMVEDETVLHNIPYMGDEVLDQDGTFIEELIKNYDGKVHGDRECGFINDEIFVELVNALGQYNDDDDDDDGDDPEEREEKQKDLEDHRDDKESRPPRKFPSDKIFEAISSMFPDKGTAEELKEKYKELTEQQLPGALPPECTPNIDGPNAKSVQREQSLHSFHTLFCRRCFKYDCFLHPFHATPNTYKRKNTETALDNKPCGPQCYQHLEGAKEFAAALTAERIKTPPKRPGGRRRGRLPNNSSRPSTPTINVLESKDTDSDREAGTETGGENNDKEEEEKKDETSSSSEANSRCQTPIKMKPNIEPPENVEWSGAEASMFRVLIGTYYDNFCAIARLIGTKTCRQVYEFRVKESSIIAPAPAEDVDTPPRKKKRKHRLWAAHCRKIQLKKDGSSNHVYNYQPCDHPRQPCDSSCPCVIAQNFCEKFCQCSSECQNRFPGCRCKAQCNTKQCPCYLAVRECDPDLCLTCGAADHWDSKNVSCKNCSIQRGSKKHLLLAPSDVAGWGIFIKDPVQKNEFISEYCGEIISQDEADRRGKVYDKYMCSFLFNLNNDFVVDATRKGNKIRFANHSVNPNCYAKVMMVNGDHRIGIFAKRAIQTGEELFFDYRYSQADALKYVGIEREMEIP
Sequence of von Hippel-Lindau disease tumor suppressor/Histone-lysine N-methyltransferase EZH2 (Q15910 whole entry, the tested form may be a part): as above
Sequence of von Hippel-Lindau disease tumor suppressor/Histone-lysine N-methyltransferase EZH2 (P40337 whole entry, the tested form may be a part): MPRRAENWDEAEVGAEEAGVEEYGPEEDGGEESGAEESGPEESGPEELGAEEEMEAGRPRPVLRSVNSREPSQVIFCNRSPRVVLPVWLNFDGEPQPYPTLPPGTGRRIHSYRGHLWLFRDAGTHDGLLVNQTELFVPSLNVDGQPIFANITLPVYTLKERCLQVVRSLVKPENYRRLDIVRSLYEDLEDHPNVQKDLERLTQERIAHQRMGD
Sequence of Protein arginine N-methyltransferase 5 (O14744 whole entry): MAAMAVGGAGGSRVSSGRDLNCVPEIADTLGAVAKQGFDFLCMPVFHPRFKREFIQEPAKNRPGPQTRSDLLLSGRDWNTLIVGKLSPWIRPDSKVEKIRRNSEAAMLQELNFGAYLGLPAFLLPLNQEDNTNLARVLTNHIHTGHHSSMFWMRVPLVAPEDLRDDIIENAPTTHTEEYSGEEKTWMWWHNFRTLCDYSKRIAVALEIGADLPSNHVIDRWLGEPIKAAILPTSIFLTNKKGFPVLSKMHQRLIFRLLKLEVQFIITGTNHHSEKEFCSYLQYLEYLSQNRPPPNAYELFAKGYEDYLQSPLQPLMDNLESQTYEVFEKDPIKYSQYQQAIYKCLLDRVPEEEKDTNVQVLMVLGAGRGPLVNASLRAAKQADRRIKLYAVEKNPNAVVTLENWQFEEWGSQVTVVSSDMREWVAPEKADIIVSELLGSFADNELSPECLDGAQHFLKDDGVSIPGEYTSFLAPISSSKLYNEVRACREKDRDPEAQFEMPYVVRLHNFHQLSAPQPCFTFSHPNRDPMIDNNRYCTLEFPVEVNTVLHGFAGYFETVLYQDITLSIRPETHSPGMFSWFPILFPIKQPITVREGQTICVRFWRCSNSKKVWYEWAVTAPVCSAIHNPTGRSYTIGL

Work on `CCN(c1cc(-c2ccc(CN3CCN(C(=O)CCCCCCCC(=O)N[C@H](C(=O)N4C[C@H](O)C[C@H]4C(=O)NCc4ccc(-c5scnc5C)cc4)C(C)(C)C)CC3)cc2)cc(C(=O)NCc2c(C)cc(C)[nH]c2=O)c1C)C1CCOCC1` yielded a DC50 [1] of 0.14 µM, an IC50 [2] of 0.062 µM and an IC50 [3] of 0.0086 µM. The IC50 (MDA-MB-453) was 2.3 µM.
Work on `N=C(N)NCCC[C@H](N)C(=O)NCC(=O)N[C@@H](CCCN)C(=O)N[C@H](CCCNC(=N)NCCCSC[C@H]1O[C@@H](n2cnc3c(N)ncnc32)[C@H](O)[C@@H]1O)C(N)=O` yielded an IC50 [4] of 0.00042 µM.
With `CCN(c1cc(-c2ccc(CN3CCN(C(=O)c4cnn(CCOCCOCCOCCNC(=O)CN5CCN(C(=O)N6C(c7ccc(OC)cc7OC(C)C)=N[C@H](c7ccc(Cl)cc7)[C@@H]6c6ccc(Cl)cc6)CC5=O)n4)CC3)cc2)cc(C(=O)NCc2c(C)cc(C)[nH]c2=O)c1C)C1CCOCC1` the IC50 (SU-DHL-6 [5]) was 3.75 µM and the “Ratio IC50” value (SU-DHL-6 [6]) was 6.
`COc1cc2nc(NCCNC(=O)CCCCC(=O)NO)nc(NC3CCN(Cc4ccccc4)CC3)c2cc1OC` gave an IC50 (A549) of 10 µM, an IC50 at 72 h (in vitro) of 19.9 µM and an IC50 (MCF7) of 10 µM. It also gave an IC50 [7] of 7.14 µM, an IC50 (Histone deacetylase [8]) of 5.73 µM and an IC50 (MDA-MB-231) of 10 µM. It also gave an IC50 (Histone deacetylase [9]) of 13.8 µM.
For `Cc1sc2c(c1C)C(c1ccc(Cl)cc1)=N[C@H](CC(=O)NCCCCOc1ccc(C3CC(c4ccc(Br)cc4)=NN3C(=O)CCl)cc1)c1nnc(C)n1-2` (stereo partly specified), the DC50 [10] was 14 µM.
In the case of `CCN(c1cc(-c2ccc(CN3CCOCC3)cc2)cc(C(=O)NCc2c(C)cc(C)[nH]c2=O)c1C)C1CCOCC1` [TAZEMETOSTAT], the IC50 (SU-DHL-6 [5]) is reported as 21.9 µM.
